Experimental data reported in paper PMC2804029 (Journal of medicinal chemistry, 2010).
Entries after “also recorded” stand apart in the source; their conditions may differ.

Assays:
B. anthracis DHPS [1] = target: T1, B. anthracis DHPS (Bacillus anthracis, UniProt Q81VW8); type: binding
B. anthracis DHPS [2] = target: T1, B. anthracis DHPS; test: biochemical; type: biochemical

T1 sequence (Q81VW8 1-280): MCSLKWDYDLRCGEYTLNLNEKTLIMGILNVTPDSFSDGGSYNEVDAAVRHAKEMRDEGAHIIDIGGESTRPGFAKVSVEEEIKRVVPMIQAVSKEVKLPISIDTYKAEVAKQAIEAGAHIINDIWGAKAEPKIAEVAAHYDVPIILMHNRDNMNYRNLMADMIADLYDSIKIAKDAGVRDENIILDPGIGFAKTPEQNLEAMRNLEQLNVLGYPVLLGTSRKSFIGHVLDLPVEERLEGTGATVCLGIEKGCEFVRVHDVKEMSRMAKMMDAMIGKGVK

SMILES: Nc1ccc(C(=O)O)cc1 [pABA, p-aminobenzoic acid]
- binding (heats of binding) by ITC (B. anthracis DHPS [1]): does not bind; also recorded: No heats of binding could be detected

SMILES: Nc1nc2[nH]c(S)nc2c(=O)[nH]1 [Compound 5]
- percentage inhibition of DHPS (B. anthracis DHPS [2]): did not show inhibition; also recorded: little or no inhibition

SMILES: Nc1nc2c(c(=O)[nH]1)N=C(CO)CN2 [Control, 6-hydroxymethyl-7,8-dihydropterin]
- IC50 (B. anthracis DHPS [2]): 58.4 µM
- inhibition at 250 µM (B. anthracis DHPS [2]; read-out: B. anthracis % inhibition): 60%
